Test results as given in US10501449B2 (priority 2018, dated 2019).

Molecular target: hROMK (human Kir1.1) (Homo sapiens (Human), UniProt P48048)
Assay: cell-based
Details: CHO T-Rex hROMK stable cell line; thallium flux; 10-point concentration response curve; read-out: Human ROMK Th Flux IC50

hROMK (human Kir1.1), sequence (P48048 whole entry): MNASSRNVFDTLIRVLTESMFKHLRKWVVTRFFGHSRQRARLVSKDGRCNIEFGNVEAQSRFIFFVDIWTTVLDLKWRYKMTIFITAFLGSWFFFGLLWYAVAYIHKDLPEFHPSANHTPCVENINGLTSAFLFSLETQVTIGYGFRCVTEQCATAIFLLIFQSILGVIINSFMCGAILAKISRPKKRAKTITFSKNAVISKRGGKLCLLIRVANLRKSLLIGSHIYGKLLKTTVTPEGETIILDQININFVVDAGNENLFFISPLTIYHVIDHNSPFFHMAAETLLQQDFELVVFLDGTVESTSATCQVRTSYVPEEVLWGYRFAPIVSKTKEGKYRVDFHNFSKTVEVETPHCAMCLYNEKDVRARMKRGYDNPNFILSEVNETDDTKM

| Compound | IC50 [nM] |
| --- | --- |
| Cc1c([C@@H]2CN(Cc3ccc(-n4cc(C(N)=O)cn4)nc3)CCN2)ccc2c1COC2=O [Example 138-I, (R)-1-(5-((3-(4-methyl-1-oxo-1,3-dihydroisobenzofuran-5-yl)piperazin-1-yl)methyl)pyridin-2-yl)-1H-pyrazole-4-carboxamide] | 670 |
| Cc1cn(-c2cc(C(F)(F)F)c(CN3CCN[C@H](c4ccc5c(c4C)COC5=O)C3)cn2)cn1 [Example 147-I, (R)-4-methyl-5-(4-((6-(4-methyl-1H-imidazol-1-yl)-4-(trifluoromethyl)pyridin-3-yl)methyl)piperazin-2-yl)isobenzofurna-1(3H)-one] | 87 |
| Cc1cc(N2CCOC2=O)cc(-n2cc(CN3C[C@@H](c4ccc5c(c4C)COC5=O)N[C@@H](C)C3)cn2)c1 [Example 152-I, 3-(3-methyl-5-(4-(((3S,5R)-3-methyl-5-(4-methyl-1-oxo-1,3-dihydroisobenzofuran-5-yl)piperazin-1-yl)methyl)-1H-pyrazol-1-yl)phenyl)oxazolidin-2-one] | 490 |
| Cc1c([C@@H]2CN(Cc3cnn(-c4ccc(S(C)(=O)=O)cn4)c3)C[C@H](C)N2)ccc2c1COC2=O [Example 161-I, 4-methyl-5-((2R,6S)-6-methyl-4-((1-(5-(methylsulfonyl)pyridin-2-yl)-1H-pyrazol-4-yl)methyl)piperazin-2-yl)isobenzofuran-1(3H)-one] | 170 |
| COc1cc(-n2cnc(CN3CC[C@@H](O)[C@H](c4ccc5c(c4C)COC5=O)C3)c2)ccc1C#N [Example 162-I, 4-(4-(((3R,4R)-4-hydroxy-3-(4-methyl-1-oxo-1,3-dihydroisobenzofuran-5-yl)piperidin-1-yl)methyl)-1H-imidazol-1-yl)-2-methoxybenzonitrile] | 260 |
| COc1cc(-n2cc(CN3C[C@@H](c4ccc5c(c4C)COC5=O)N[C@@H](C)C3)n(C(C)C)c2=O)ncc1C#N [Example 172-I, 6-(3-isopropyl-4-(((3S,5R)-3-methyl-5-(4-methyl-1-oxo-1,3-dihydroisobenzofuran-5-yl)piperazin-1-yl)methyl)-2-oxo-2,3-dihydro-1H-imidazol-1-yl)-4-methoxynicotinonitrile] | 160 |
| Cc1c([C@@H]2CN(Cc3ccc(-c4ccnc(N5CCOC5=O)c4)nc3)C[C@H](C)N2)ccc2c1COC2=O [Example 174-I, 3-(5-(((3S,5R)-3-methyl-5-(4-methyl-1-oxo-1,3-dihydroisobenzofuran-5-yl)piperazin-1-yl)methyl)-[2,4′-bipyridin]-2′-yl)oxazolidin-2-one] | 220 |
| Cc1cc(-n2nnc(CN3C[C@@H](c4ccc5c(c4C)COC5=O)N[C@@H](C)C3)c2C)ncc1C#N [Example 176-I, 4-methyl-6-(5-methyl-4-(((3S,5R)-3-methyl-5-(4-methyl-1-oxo-1,3-dihydroisobenzofuran-5-yl)piperazin-1-yl)methyl)-1H-1,2,3-triazol-1-yl)nicotinonitrile] | 120 |
| Cc1c([C@@H]2CN(Cc3cnn(-c4ccnc5c4ccn5C)c3)CCO2)ccc2c1COC2=O [Example 177-I, (R)-4-methyl-5-(4-((1-(1-methyl-1H-pyrrolo[2,3-b]pyridin-4-yl)-1H-pyrazol-4-yl)methyl)morpholin-2-yl)isobenzofuran-1(3H)-one] | 500 |
| Cc1ccc(-n2cnc(CN3C[C@@H](c4ccc5c(c4C)COC5=O)N[C@@H](C)C3)c2)cc1 [Example 178-I, 4-methyl-5-((2R,6S)-6-methyl-4-((1-(p-tolyl)-1H-imidazol-4-yl)methyl)piperazin-2-yl)isobenzofuran-1(3h)-one] | 220 |
| Cc1cnccc1-n1cnc(CN2C[C@@H](c3ccc4c(c3C)COC4=O)N[C@@H](C)C2)c1 [Example 179-I, 4-methyl-5-((2R,6S)-6-methyl-4-((1-(3-methylpyridin-4-yl)-1H-imidazol-4-yl)methyl)piperazin-2-yl)isobenzofuran-1(3H)-one] | 360 |
| Cc1ccc(-n2cnc(CN3C[C@@H](c4ccc5c(c4C)COC5=O)N[C@@H](C)C3)c2)cn1 [Example 180-I, 4-methyl-5-((2R,6S)-6-methyl-4-((1-(6-methylpyridin-3-yl)-1H-imidazol-4-yl)methyl)piperazin-2-yl)isobenzofuran-1(3H)-one] | 77 |
| Cc1cc(-n2cnc(CN3C[C@@H](c4ccc5c(c4C)COC5=O)N[C@@H](C)C3)c2)cc(C)n1 [Example 181-I, 5-((2R,6S)-4-((1-(2,6-dimethylpyridin-4-yl)-1H-imidazol-4-yl)methyl)-6-methylpiperazin-2-yl)-4-methylisobenzofuran-1(3H)-one] | 150 |
| Cc1c([C@@H]2CN(Cc3cn(-c4ccc5c(c4)OC(F)(F)O5)cn3)C[C@H](C)N2)ccc2c1COC2=O [Example 182-I, 5-((2R,6S)-4-((1-(2,2-difluorobenzo[d][1,3]dioxol-5-yl)-1H-imidazol-4-yl)methyl)-6-methylpiperazin-2-yl)-4-methylisobenzofuran-1(3H)-one] | 260 |
| Cc1cc(-c2cnc(CN3CCN[C@H](c4ccc5c(c4C)COC5=O)C3)nc2)ncc1C#N [Example 183-I, (R)-4-methyl-6-(2-((3-(4-methyl-1-oxo-1,3-dihydroisobenzofuran-5-yl)piperazin-1-yl)methyl)pyrimidin-5-yl)nicotinonitrile] | 180 |
| Cc1cc(-n2cc(CN3CCN[C@H](c4ccc5c(c4C)COC5=O)C3)nn2)nc(C)c1C#N [Example 186-I, (R)-2,4-dimethyl-6-(4-((3-(4-methyl-1-oxo-1,3-dihydroisobenzofuran-5-yl)piperazin-1-yl)methyl)-1H-1,2,3-triazol-1-yl)nicotinonitrile] | 18 |
| Cc1c([C@@H]2CN(Cc3cnc(-n4c(C)nnc4C)nc3)CCN2)ccc2c1COC2=O [Example 201-I, (R)-5-(4-((2-(3,5-dimethyl-4H-1,2,4-triazol-4-yl)pyrimidn-5-yl)methyl)piperazin-2-yl)-4-methylisobenzofuran-1(3H)-one] | 190 |
| Cc1c(C#N)ccnc1-n1cc(CN2C[C@@H](c3ccc4c(c3C)COC4=O)N[C@@H](C)C2)cn1 [Example 202-I, 3-methyl-2-(4-(((3S,5R)-3-methyl-5-(4-methyl-1-oxo-1,3-dihdyroisobenzofuran-5-yl)piperazin-1-yl)methyl)-1H-pyrazol-1-yl)isonicotinonitrile] | 140 |
| Cc1cnc(-n2cc(CN3C[C@@H](c4ccc5c(c4C)COC5=O)N[C@@H](C)C3)cn2)cn1 [Example 206-I, 4-methyl-5-((2R,6S)-6-methyl-4-((1-(5-methylpyrazin-2-yl)-1H-pyrazol-4-yl)methyl)piperazin-2-yl)isobenzofuran-1(3H)-one] | 82 |
| COc1ncc(-n2cc(CN3C[C@@H](c4ccc5c(c4C)COC5=O)N[C@@H](C)C3)cn2)cn1 [Example 208-I, 5-((2R,6S)-4-((1-(2-methoxypyrimidin-5-yl)-1H-pyrazol-4-yl)methyl)-6-methylpiperazin-2-yl)-4-methylisobenzofuran-1(3H)-one] | 190 |
| Cc1ncc(-n2cc(CN3C[C@@H](c4ccc5c(c4C)COC5=O)N[C@@H](C)C3)cn2)cn1 [Example 209-I, 4-methyl-5-((2R,6S)-6-methyl-4-((1-(2-methylpyrimidin-5-yl)-1H-pyrazol-4-yl)methyl)piperazin-2-yl)isobenzofuran-1(3H)-one] | 100 |
| Cc1cn(-c2ncc(CN3CCO[C@H](c4ccc5c(c4C)COC5=O)C3)cn2)cn1 [Example 224-I, (R)-4-methyl-5-(4-((2-(4-methyl-1H-imidazol-1-yl)pyrimidin-5-yl)methyl)morpholin-2-yl)isobenzofuran-1(3H)-one] | 27 |
| Cc1cc(-n2cc(CN3CCC(=O)C(c4ccc5c(c4C)COC5=O)C3)cn2)ncc1C#N (centres unmarked) [Example 232-I, 4-methyl-6-(4-((3-(4-methyl-1-oxo-1,3-dihydroisobenzofuran-5-yl)-4-oxopiperidin-1-yl)methyl)-1H-pyrazol-1-yl)nicotinonitrile] | 480 |
| Cc1c([C@@H]2CN(Cc3cnc(-n4cncn4)nc3)CCN2)ccc2c1COC2=O [Example 234-I, (R)-5-(4-((2-(1H-1,2,4-triazol-1-yl)pyrimidin-5-yl)methyl)piperazin-2-yl)-4-methylisobenzofuran-1(3H)-one] | 78 |
| Cc1c([C@@H]2CN(Cc3ccc(-n4cnc(C(F)F)c4)nc3)CCN2)ccc2c1COC2=O [Example 235-I, (R)-5-(4-((6-(4 (difluoromethyl)-1H-imidazol-1-yl)pyridin-3-yl)methyl)piperazin-2-yl)-4-methylisobenzofuran-1(3H)-one] | 83 |
| Cc1c([C@@H]2CN(Cc3ccc(-c4ccc(=O)n(C)c4)nc3)C[C@H](C)N2)ccc2c1COC2=O [Example 238-I, 1′-methyl-5-(((3S,5R)-3-methyl-5-(4-methyl-1-oxo-1,3-dihydroisobenzofuran-5-yl)piperazin-1-yl)methyl)-[2,3′-bipyridin]-6′(1′H)-one] | 470 |
| Cc1cc(-n2ncc(CN3C[C@H](C)N(O)[C@H](c4ccc5c(c4C)COC5=O)C3)n2)ncc1C#N [Example 246-I, 6-(4-(((3S,5R)-4-hydroxy-3-methyl-5-(4-methyl-1-oxo-1,3-dihydroisobenzofuran-5-yl)piperazin-1-yl)methyl)-2H-1,2,3-triazol-2-yl)-4-methylnicotinonitrile] | 870 |
| Cc1cc(-n2ccc(CN3C[C@@H](c4ccc5c(c4C)COC5=O)N[C@@H](C)C3)cc2=O)ncc1C#N [Example 247-I, 4′-methyl-4-(((3S,5R)-3-methyl-5-(4-methyl-1-oxo-1,3-dihydroisobenzofuran-5-yl)piperazin-1-yl)methyl)-2-oxo-2H-[1,2′-bipyridine]-5′-carbonitrile] | 330 |
| Cc1cc(N2CCCS2(=O)=O)cc(-n2cc(CN3C[C@@H](c4ccc5c(c4C)COC5=O)N[C@@H](C)C3)cn2)n1 [Example 253-I, 5-((2R,6S)-4-((1-(4-(1,1-dioxidoisothiazolidin-2-yl)-6-methylpyridin-2-yl)-1H-pyrazol-4-yl)methyl)-6-methylpiperazin-2-yl)-4-methylisobenzofuran-1(3H)-one] | 400 |
